# Patent US20230048888A1, “USE OF TRIAZOLOTRIAZINE DERIVATIVE IN TREATMENT OF DISEASES” (ZHEJIANG VIMGREEN PHARMACEUTICALS, LTD., priority 2019, published 2023)
# How the values were obtained:
# [1] = Pharmacokinetics of test compounds in SD rats (15.2; IV and PO, mixed administration); assay type: in vivo; settings: male, Sprague-Dawley, rat, plasma; SD rats, PO, 2 mg/kg, mixed administration (6 compounds per group)
# Procedure: Administration dose: the compounds in this group were all administered in a mixed way, with 6 compounds in each group for mixed PO administration.
# Blood was collected based on the blood collection points in the test protocol. 50 μL of plasma sample was added with acetonitrile (containing 5 ng/mL Verapamil) being 3 folds of the volume thereof; the resulting mixture was vortexed for 30 s, and then centrifuged for 15 min at 15,000 rpm at 4° C.; and 10μ L of supernatant was taken for LC-MS/MS analysis.
# For each compound, 3 male SD rats weighing 200-220 g were fasted for one night before dosage, but had access to water.
# Orally intragastric administration: before intragastric administration and at 0.083 h, 0.25 h, 0.5 h, 1 h, 2 h, 4 h, 8 h and 24 h after administration (for Compounds 40, 27, 40 and 47), or at 0.25 h, 0.5 h, 1 h, 4 h, 6 h and 8 h after administration (for Compounds 44 and 48), orbital blood was collected and put in a test tube that was treated with heparin sodium, and after centrifugation, the supernatant plasma was collected for LC-MS/MS analysis.
# The plasma samples were processed according to the method for “sample treatment” and then analyzed by LC-MS/MS, accompanied with the standard curve and quality control samples. At a time point when the upper limit of quantification was exceeded, the samples were diluted 10 or 100 folds for analysis. All measured data were collected and processed by Analyst 1.6.3 software, and the data were calculated and processed with Microsoft Excel. With DAS 3.2.8 software, the pharmacokinetic parameters were calculated by the statistical moment method. The pharmacokinetic parameters mainly include Tmax, t1/2, Cmax, AUC(0-t), etc.
# adenosine receptors A2A = target: T1, adenosine receptors A2A (Homo sapiens, UniProt P29274); assay: TR-FRET-based cAMP accumulation assay in hADORA2A-HEK293 cells; assay type: cell-based; settings: NECA at EC80, hADORA2A-HEK293, read-out: A2AR activity (IC50)
# T1 construct: expressed in transfected cells; host or cells: HEK293 (hADORA2A-HEK293)
# T1 sequence (P29274 whole entry): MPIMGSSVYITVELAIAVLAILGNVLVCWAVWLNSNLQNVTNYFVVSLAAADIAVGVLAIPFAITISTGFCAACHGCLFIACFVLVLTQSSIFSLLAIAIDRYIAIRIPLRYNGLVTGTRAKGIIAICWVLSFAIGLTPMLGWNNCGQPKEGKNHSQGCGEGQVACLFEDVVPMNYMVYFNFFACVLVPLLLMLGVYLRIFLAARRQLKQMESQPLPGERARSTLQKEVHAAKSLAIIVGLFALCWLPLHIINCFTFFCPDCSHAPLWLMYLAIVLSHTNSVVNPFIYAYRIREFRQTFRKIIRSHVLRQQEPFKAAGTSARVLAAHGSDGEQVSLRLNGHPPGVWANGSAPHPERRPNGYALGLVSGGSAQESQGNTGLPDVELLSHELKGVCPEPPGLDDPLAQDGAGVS
# Procedure: The inhibitory effects of the test compounds on the adenosine receptors A2A were evaluated by TR-FRET-based cAMP accumulation assay. The method included, in HEK293 cells (hADORA2A-HEK293) expressing A2AR, the production of cAMP stimulated by NECA and the inhibitory effect of A2A receptor antagonists on cAMP. All cells were cultured in a complete medium at 37° C. in the presence of 5% CO2. After being digested with trypsin, the cells were collected by centrifugation at 200 g for 5 minutes. The cells were resuspended in a fresh complete medium, and then the cell viability was counted by a trypan blue exclusion method. […] The cells were diluted with Hank's buffer solution containing HEPES (5 mM), BSA stabilizer (0.1%) and Rolipram (10 μM), then added to a 384-well white non-transparent plate (cells/well, 10 μl/well), and incubated with the test compound at an appropriate concentration (11 concentrations) for 20 minutes at room temperature. Then, the A2A receptor agonist NECA (final concentration=EC80, which was determined in the same experiment performed earlier) was added to the sample, and the sample was incubated again at 37° C. for 30 minutes.
# An inhibition rate (%) was calculated according to the following formula, and an IC50 value was calculated from a concentration-inhibition (%) curve after log conversion.
# A curve corresponding to the dose was fitted by using XLfit software and the IC50 was determined.
# [2] = Pharmacokinetics of Compounds 27, 16, 14 and 22 in SD rats; assay type: in vivo; settings: for AUC(0-t) / Cmax / half-life / clearance: Sprague-Dawley, rat, in vivo; for clearance: read-out: Cl—pred (converted)
# Excerpt: (§1) WinNonlin® 6.4 was used as the calculation software for PK parameters.
# [3] = Pharmacokinetics of Compounds 27, 40, 22 and 41 in ICR mice in different modes of administration; assay type: in vivo; settings: for AUC(0-t) / Cmax / half-life: ICR
# Excerpt: as §1
SMILES,AUC(0-t) [1] [ng·h/mL],IC50 (adenosine receptors A2A) [nM],further results
"COCCOCCNc1ccc(CCNc2nc(N)n3nc(-c4ccco4)nc3n2)cc1 [Compound 28, 2-(furan-2-yl)-N5-(4-((2-(2-methoxyethoxy)ethyl)amino)phenethyl)-[1,2,4]triazolo[1,5-a][1,3,5]triazine-5,7-diamine]",757,6.77,
"Cn1cnc(-c2ccc(CCNc3nc(N)n4nc(-c5ccco5)nc4n3)cc2)n1 [Compound 52, 2-(furan-2-yl)-N5-(4-(1-methyl-1H-1,2,4-triazol-3-yl)phenethyl)-[1,2,4]triazolo[1,5-a][1,3,5]triazine-5,7-diamine]",388,,
"N#CCn1nnc(-c2ccc(CCNc3nc(N)n4nc(-c5ccco5)nc4n3)cc2)n1 [Compound 44, 2-(5-(4-(2-(7-amino-2-(furan-2-yl)-[1,2,4]triazolo[1,5-a][1,3,5]triazine-5-ylamino)ethyl)-phenyl)-2H-tetrazol-2-yl)acetonitrile]",341,,
"COCCN(CCOC)c1ccc(CCNc2nc(N)n3nc(-c4ccco4)nc3n2)cc1 [Compound 21, N5-(4-(bis(2-methoxyethyl)amino)phenethyl)-2-(furan-2-yl)-[1,2,4]triazolo[1,5-a][1,3,5]triazine-5,7-diamine]",603,1.62,
"CC(C)n1nnc(-c2ccc(CCNc3nc(N)n4nc(-c5ccco5)nc4n3)cc2)n1 [Compound 42, N5-(4-(2-isopropyl-2H-tetrazol-5-yl)phenethyl)-2-(furan-2-yl)-[1,2,4]triazolo[1,5-a][1,3,5]triazine-5,7-diamine]",818,9.08,
"Nc1nc(NCCc2ccc(NC3CCOCC3)cc2)nc2nc(-c3ccco3)nn12 [Compound 18, 2-(furan-2-yl)-N5-(4-((tetrahydro-2H-pyran-4-yl)amino)phenethyl)-[1,2,4]triazolo[1,5-a][1,3,5]triazine-5,7-diamine]",441,3.83,
"Nc1nc(NCCc2ccc(OCCN3CCC(F)(F)C3)cc2)nc2nc(-c3ccco3)nn12 [Compound 14, N5-(4-(2-(3,3-difluoropyrrolidin-1-yl)ethoxy)phenethyl)-2-(furan-2-yl)-[1,2,4]triazolo[1,5-a][1,3,5]triazine-5,7-diamine]",,,"Cl—F—pred ([2]; PO, dose 10 (mg/kg)): 144 mL/min/kg; F ([2]; PO, dose 10 (mg/kg)): 17.90%; AUC(0-t) ([2]; IV, dose 1 (mg/kg)): 678 ng·h/mL; Cmax ([2]; IV, dose 1 (mg/kg)): 1680 ng/mL; half-life ([2]; IV, dose 1 (mg/kg)): 0.44 h; clearance ([2]; IV, dose 1 (mg/kg)): 24.7 mL/min/kg; AUC(0-t) ([2]; PO, dose 10 (mg/kg)): 1210 ng·h/mL; Cmax ([2]; PO, dose 10 (mg/kg)): 574 ng/mL; half-life ([2]; PO, dose 10 (mg/kg)): 3.05 h"
"Nc1nc(NCCc2ccc(OCCN3CC[C@H](F)C3)cc2)nc2nc(-c3ccco3)nn12 [Compound 16, (S)-N5-(4-(2-(3-fluoropyrrolidin-1-yl)ethoxy)phenethyl)-2-(furan-2-yl)-[1,2,4]triazolo[1,5-a][1,3,5]triazine-5,7-diamine]",,,"Cl—F—pred ([2]; PO, dose 10 (mg/kg)): 233 mL/min/kg; AUC(0-t) ([2]; IV, dose 1 (mg/kg)): 536 ng·h/mL; Cmax ([2]; IV, dose 1 (mg/kg)): 986 ng/mL; half-life ([2]; IV, dose 1 (mg/kg)): 0.61 h; clearance ([2]; IV, dose 1 (mg/kg)): 31.5 mL/min/kg; AUC(0-t) ([2]; PO, dose 10 (mg/kg)): 758 ng·h/mL; Cmax ([2]; PO, dose 10 (mg/kg)): 258 ng/mL; half-life ([2]; PO, dose 10 (mg/kg)): 4.78 h"
"Nc1nc(NCCc2ccc(-c3nnn(CC(F)(F)F)n3)cc2)nc2nc(-c3ccco3)nn12 [Compound 46, N5-(4-(2-(2,2,2-trifluoroethyl)-2H-tetrazol-5-yl)phenethyl)-2-(furan-2-yl)-[1,2,4]triazolo[1,5-a][1,3,5]triazine-5,7-diamine]",739,,
"Nc1nc(NCCc2ccc(NC3COC3)cc2)nc2nc(-c3cccc(F)c3)nn12 [Compound 37, 2-(3-fluorophenyl)-N5-(4-(oxetan-3-ylamino)phenethyl)-[1,2,4]triazolo[1,5-a][1,3,5]triazine-5,7-diamine]",1830,7.07,
"CCn1nnc(-c2ccc(CCNc3nc(N)n4nc(-c5ccco5)nc4n3)cc2)n1 [Compound 41, N5-(4-(2-ethyl-2H-tetrazol-5-yl)phenethyl)-2-(furan-2-yl)-[1,2,4]triazolo[1,5-a][1,3,5]triazine-5,7-diamine]",1890,7.87,"AUC(0-t) ([3]; mouse, in vivo, iv, 1 mg/kg): 1110 ng·h/mL; Cmax ([3]; mouse, in vivo, iv, 1 mg/kg): 2230 ng/mL; half-life ([3]; mouse, in vivo, iv, 1 mg/kg): 0.28 h; AUC(0-t) ([3]; mouse, in vivo, po, 5 mg/kg): 1800 ng·h/mL; Cmax ([3]; mouse, in vivo, po, 5 mg/kg): 1300 ng/mL; half-life ([3]; mouse, in vivo, po, 5 mg/kg): 1.85 h; Cl—F—pred ([3]; PO, 5 mg/kg): 48.7 mL/min/kg; F ([3]; PO, 5 mg/kg): 32.51%; clearance ([3]; mouse, in vivo, IV, 1 mg/kg, read-out: Cl—pred (converted)): 15.2 mL/min/kg"
"COCCOCCOCCNc1ccc(CCNc2nc(N)n3nc(-c4ccco4)nc3n2)cc1 [Compound 29, 2-(furan-2-yl)-N5-(4-((2-(2-(2-methoxyethoxy)ethoxy)ethyl)amino)phenethyl)-[1,2,4]triazolo[1,5-a][1,3,5]triazine-5,7-diamine]",160,,
"CCOCCNc1ccc(CCNc2nc(N)n3nc(-c4ccco4)nc3n2)cc1 [Compound 30, N5-(4-((2-ethoxyethyl)amino)phenethyl)-2-(furan-2-yl)-[1,2,4]triazolo[1,5-a][1,3,5]triazine-5,7-diamine]",,3.52,
"COCC(COC)Nc1ccc(CCNc2nc(N)n3nc(-c4ccco4)nc3n2)cc1 [Compound 35, N5-(4-(1,3-dimethoxypropane-2-ylamino)phenethyl)-2-(furan-2-yl)-[1,2,4]triazolo[1,5-a][1,3,5]triazine-5,7-diamine]",1600,4.88,
"CC1(C(=O)Nc2ccc(CCNc3nc(N)n4nc(-c5ccco5)nc4n3)cc2)CCOCC1 [Compound 6, N-(4-(2-((7-amino-2-(furan-2-yl)-[1,2,4]triazolo[1,5-a][1,3,5]triazin-5-yl)amino)ethyl)phenyl)-4-methyltetrahydro-2H-pyran-4-carboxamide]",,9.24,

# Now from value to compound, other results behind:
AUC(0-t) [1] [ng·h/mL],IC50 (adenosine receptors A2A) [nM],SMILES,further results
315,,"CCCn1nnc(-c2ccc(CCNc3nc(N)n4nc(-c5ccco5)nc4n3)cc2)n1 [Compound 43, N5-(4-(2-propyl-2H-tetrazol-5-yl)phenethyl)-2-(furan-2-yl)-[1,2,4]triazolo[1,5-a][1,3,5]triazine-5,7-diamine]",
,8.71,"CN(C)C(=O)c1ccc(CCNc2nc(N)n3nc(-c4ccco4)nc3n2)cc1 [Compound 38, 4-(2-(7-amino-2-(furan-2-yl)-[1,2,4]triazolo[1,5-a][1,3,5]triazine-5-ylamino)ethyl)-N,N-dimethylbenzamide]",
597,,"Nc1nc(NCCc2ccc(-c3ccccn3)cc2)nc2nc(-c3ccco3)nn12 [Compound 48, 2-(furan-2-yl)-N5-(4-(pyridin-2-yl)phenethyl)-[1,2,4]triazolo[1,5-a][1,3,5]triazine-5,7-diamine]",
718,,"N#Cc1ccc(CCNc2nc(N)n3nc(-c4ccco4)nc3n2)cc1 [Compound 45, 4-(2-(7-amino-2-(furan-2-yl)-[1,2,4]triazolo[1,5-a][1,3,5]triazine-5-ylamino)ethyl)-benzonitrile]",
420,,"Nc1nc(NCCc2ccc(-c3ncccn3)cc2)nc2nc(-c3ccco3)nn12 [Compound 51, 2-(furan-2-yl)-N5-(4-(pyrimidin-2-yl)phenethyl)-[1,2,4]triazolo[1,5-a][1,3,5]triazine-5,7-diamine]",
142,,"COCCN(C)c1ccc(CCNc2nc(N)n3nc(-c4ccco4)nc3n2)cc1 [Compound 25, 2-(furan-2-yl)-N5-(4-((2-methoxyethyl)(methyl)amino)phenethyl)-[1,2,4]triazolo[1,5-a][1,3,5]triazine-5,7-diamine]",
